Reference: patent publication US11834663B2, “Fibrotic treatment” (Monash University, priority 2015, dated 2023)

Test system: transverse heart sections from Ang II-infused WT mice
Assay: Angiotensin II infusion prevention model: cardiac hypertrophy, fibrosis, ROS and inflammatory markers
Type: in vivo, mouse
Conditions: Ang II + HFI-419, 4 weeks
Procedure: There are 8 different sets of in vivo experiments in this study: • A) Phenotypic characterisation of the heart and blood vessels in global IRAP knockout mice and their WT controls treated for 4 weeks with Angiotensin (Ang) II (800 ng/kg/min; s.c.) where mouse hearts and blood vessels were compared to tissue obtained from young WT and IRAP^−/− mice treated with saline. • B) Prevention of Ang II-induced changes in the cardiovascular system following IRAP inhibitor treatment. In the prevention model, WT mice were treated with Ang II (800 ng/kg/min; s.c.)±the IRAP inhibitor (HFI-419; 500 ng/kg/min for 28 days) or HFI-vehicle (1 DMSO:3 HBC). • C) Phenotypic characterisation of the aged heart, kidney and blood vessels in the global IRAP knockout mice where aged WT and IRAP^−/− mouse hearts, kidneys and blood vessels were compared to tissue obtained from young WT and IRAP^−/− mice. • D) Reversal of the age-induced changes in the cardiovascular system following IRAP inhibitor treatment. In the reversal model, aged WT mice were treated with either saline, IRAP inhibitor (HFI-419 at 500 ng/kg/min; compound 1 at 500 ng/kg/min; compound 2 at 50 ng/kg/min) or HFI-vehicle (1 DMSO: 3 HBC) for 4 weeks. • E) Prevention of ischemic-reperfusion injury in isolated hearts taken from aged global IRAP knockout mice and aged IRAP inhibitor (HFI-419 at 500 ng/kg/min; s.c.) treated WT mice compared to age-matched vehicle-treated (1 DMSO:3 HBC; s.c.) WT controls. • F) Phenotypic characterization of cardiac function using echocardiography in the aged global IRAP knockout mice compared to aged and young WT mice. • G) Phenotypic characterization of liver steatosis in IRAP knockout mice in a high fat diet (HFD) model. • H) Reversal of the salt-induced fibrosis in the liver following IRAP inhibitor treatment.
To measure collagen deposition, frozen sections of heart, kidney or aorta (all 5 μm thickness) were air dried for 10 minutes and were brought through 3 times xylene (2 minutes each), and 3 times absolute alcohol washes before being rinsed in tap H2O for 30 seconds. Staining with an optimal concentration of picrosirius red (in this instance 0.05% picrosirius red diluted in saturated picric acid) was performed and left for an hour. Sections were then rinsed in water and differentiated in 0.01 M HCl for 2 minutes, followed by dehydration via 3 times absolute alcohol washes. Then, slides were brought through 3 times xylene washes before being cover slipped according to standard histological techniques using DPX as the mounting medium. Images were taken under ×20 magnification, using bright field (Olympus, BX51) and circularized polarized light microscopy (DM IRB, Leica) while percentage of positive interstitial collagen staining per total field of view was quantified using ImageJ 1.46 software (Java, NIH), and averaged out from a total of eight views as the final percentage collagen content in a particular animal.
Ventricular weight (VW) was compared to the body weight (BW) as a ratio of VW:BW (mg/g), as well as comparison of VW to tibial length (TL) in as a ratio of VW:TL (mg/mm) respectively. The hearts that were embedded in OCT and frozen were transversely sectioned in a cryostat at 5 μm thickness, and stained with Hematoxylin and Eosin (Amber Scientific) for morphological examination of cell structure. The average of 100 cardiomyocytes per heart section was performed under 60× magnification and analyzed using Image J.
Immunostaining was performed on either 5 μm thick transverse frozen heart sections or 5 μm thick frozen thoracic aortic. These sections were air dried and fixed in ice-cold acetone for approximately 15 minutes before washing with 0.01M PBS buffer (3×10 minutes). Sections were then incubated with 10% goat serum in 0.01M PBS for 30 minutes to reduce non-specific binding. […]

## CCOC(=O)C1=C(NC(C)=O)Oc2cc(O)ccc2C1c1cccnc1 (stereo not drawn) [HFI-419]
FIG. 5a
  Ang II-mediated increase in cardiac hypertrophy (cardiomyocyte cross-sectional area, H&E): prevented
FIG. 5b
  interstitial collagen expression in heart (picrosirius red, brightfield): significantly decreased
FIG. 6
  protein expression of TGF-β1 in heart (western blot): decreased
  vimentin staining in heart (marker for fibroblast expression): no change
  α-SMA staining in heart (marker for myofibroblast expression): decreased
FIG. 7
  Ang II-induced increase in cardiac superoxide generation (DHE): prevented
  ICAM-1 expression and protein content in heart: decreased
  MCP-1 expression in heart: decreasing
  P-IκBα expression in heart: decreased
  expression of NOX-2 in heart: no effect
  macrophage (F4/80) expression in heart: decreasing
immunofluorescence, FIG. 6
  perivascular expression of TGF-β1 in heart: decreased
